According to patent US11065252B2, “Treatment of rosacea with P38 and Erk kinase pathway inhibitors” (Albany Medical College, priority 2016, dated 2021):

Tests used:
[1] = tested on: subjects with acute coronary syndrome; conditions: phase III trial; cited from earlier work
Balb/c mice = experiment: Skin safety of daily topical cream on shaved backs of mice; assay type: in vivo
Excerpt: Wild type Balb/c mice of 6-8 weeks of age were used to determine the safety and efficacy of application of a cream containing an inhibitor of the Erk pathway. Animal studies were approved by the Albany Medical Center Institutional Review Board. The fur of the back was removed with an application of Nair. Three days later, three marks were made on the backs of the mice and treated with a cream containing trametinib (an Erk pathway inhibitor), vehicle cream (without an active ingredient) or nothing daily for five days. One hour after the last application, the spots were treated with one cream or the other, and cutaneous inflammation was induced via exposure to 1-Fluoro-2,4-dinitrobenzene (hereafter DNFB). Six hours later mice were euthanized and the skin spots were processed for histological analysis.
More specifically, to determine whether a cream containing an inhibitor of the Erk activation pathway would effectively penetrate the skin and protect it from an external injury, four mice were treated once a day for five consecutive days on a shaved back with a cream containing 0.1 mg/ml trametinib and cream without drug as described in FIG. 4. Regions labeled ‘U’ were left untreated and represent the baseline normal skin. […] Regions labeled ‘T’ were treated with a cream containing trametinib as the active ingredient. […]

SMILES	Efficacy in reducing the incidence of cardiovascular events [1]	Safety profile in trial [1]	Skin changes after application of cream (photographs) (Balb/c mice; cream containing 0.1 mg/ml trametinib, topical, once a day for five days, shaved back)	Acute adverse effect in the skin (Balb/c mice; topical cream containing trametinib, five days)
Cc1c(F)cc(C(=O)NC2CC2)cc1-c1ccc(C(=O)NCC(C)(C)C)cn1 [Losmapimod]	did not demonstrate efficacy	good safety profile	–	–
CC(=O)Nc1cccc(-n2c(=O)n(C3CC3)c(=O)c3c(Nc4ccc(I)cc4F)n(C)c(=O)c(C)c32)c1 [trametinib, Trametinib]	–	–	No skin changes	does not elicit an acute adverse effect
